Twelve compounds from the Kinase Knowledgebase extract (Sharma et al. 2016) can be followed below.

Bounds are passed on as bounds.

Sequence of MAPK14 (human) (Q16539 whole entry, looked up): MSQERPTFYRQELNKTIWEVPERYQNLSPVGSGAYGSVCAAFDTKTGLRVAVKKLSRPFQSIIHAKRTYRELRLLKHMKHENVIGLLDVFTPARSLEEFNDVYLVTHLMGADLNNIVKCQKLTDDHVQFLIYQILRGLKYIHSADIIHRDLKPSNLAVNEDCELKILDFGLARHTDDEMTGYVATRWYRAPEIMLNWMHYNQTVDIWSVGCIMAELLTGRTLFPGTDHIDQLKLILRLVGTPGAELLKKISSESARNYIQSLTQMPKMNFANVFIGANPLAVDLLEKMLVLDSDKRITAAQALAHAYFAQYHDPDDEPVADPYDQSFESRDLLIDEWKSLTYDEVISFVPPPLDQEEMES

This test concerns the target MAPK14 (human) (UniProt Q16539). In words: Assessment of MAPK14 Kinase Activity.
Regarding `C[C@@H](O)CNc1nccc(-c2c(-c3ccc(F)cc3)nc3occn23)n1`, the IC50 was 0.0371 µM.

On to `CC(C)(C)OC(=O)N1CCC[C@H]1CNc1nccc(-c2c(-c3ccc(F)cc3)nc3sccn23)n1`, for which the 50% inhibitory concentration (IC50) stood at 0.00726 µM.

The compound `O[C@@H](CNc1nccc(-c2c(-c3ccc(F)cc3)nc3occn23)n1)c1ccccc1` registered a concentration for half-maximal inhibition (IC50) of 0.00896 µM.

`Fc1ccc(-c2nc3sccn3c2-c2ccnc(N3CCCCC3)n2)cc1` showed an IC50 of 0.527 µM.

In turn, `CS(=O)(=O)c1nccc(-c2c(-c3ccc(F)c(F)c3)nc3sccn23)n1` registered a 50% inhibitory concentration (IC50) of 10 µM.

The compound `OCCC(CO)Nc1nccc(-c2c(-c3ccc(F)cc3)nc3sccn23)n1` (configuration not stated) came in with a half-inhibitory concentration (IC50) of 0.0871 µM.

Consider `C[C@@H](CO)Nc1nccc(-c2c(-c3ccc(F)cc3)nc3occn23)n1`, for which the half-maximal inhibitory concentration (IC50) turned out to be 0.0348 µM.

`COc1cccc(-c2nc3sccn3c2-c2ccnc(S(C)(=O)=O)n2)c1`: the IC50 was 10 µM.

On to `COc1cccc(-c2nc3sccn3c2-c2nc(SC)ncc2-c2ccccc2)c1`, for which the IC50 was > 10 µM.

Take `CCCCCOc1nccc(-c2c(-c3ccc(F)cc3)nc3sccn23)n1`: the concentration for half-maximal inhibition (IC50) worked out at 0.89 µM.

Compound `Fc1ccc(Cl)c(-c2nc3occn3c2-c2ccnc(N[C@@H]3CN4CCC3CC4)n2)c1` gave a half-inhibitory concentration (IC50) of 0.0068 µM.

For the compound `Cc1ccc(-c2nc3sccn3c2-c2ccnc(S(C)(=O)=O)n2)cc1`, the half-inhibitory concentration (IC50) is 10 µM.

Usually IC50 stands for the concentration needed to halve the response being measured. Low readings indicate greater potency, high ones weaker potency.
